Measured values as given in US20240299412A1, “DRUG FORMULATIONS OF 4-(3,3-DIFLUORO-2,2-DIMETHYL-PROPANOYL) -3,5-DIHYDRO-2H-PYRIDO[3,4-f][1,4]OXAZEPINE-9-CARBONITRILE” (Genzyme Corporation, priority 2023, published 2024).
Converted amounts (≈) assume the structure as drawn.

Experiments:
Type in all cases: physicochemical
[1] = Dynamic vapor sorption (DVS)
Experimental: DVS. DVS was measured via a SMS (Surface Measurement Systems) DVS Intrinsic. The relative humidity at 25° C. were calibrated against deliquescence point of LiCl, Mg(NO3)2 and KCl.
(onset temperature). Considering the low TGA weight loss and single sharp DSC endotherm, Form A was postulated to be an anhydrate. […] However Form A has been prepared with much lower volatile content (0.1% or lower).

[2] = Solution stability in pH buffers; details: 37° C.; for Purity vs. Initial (%): ~0.5 mg/mL, Clear
Experimental: Solution stability study was performed in pH 2.0/4.0/6.0/7.0 (24 hrs) and pH 8.0 (24 hrs and 96 hrs) buffers. Solids were dissolved with pH buffers with target conc. of ˜0.5 mg/mL to form clear solutions and stored at 37° C. for 24 hrs or 96 hrs.

[3] = Physical and chemical stability of Form A (solid storage)
Experimental: To evaluate the physical and chemical stability, Compound (1) Form A was stored in 3 conditions (40° C./75% RH; 25° C./60% RH; and 60° C.) for one and four weeks.

[4] = 24-Hrs solubility in pH buffers; details: for solubility at 24 h: aqueous buffer, thermodynamic from solid, Turbid; for Final Form: residual solid; for solubility at 24 h / Final Form: 24 hrs
[5] = Kinetic solubility in bio-relevant media and H2O; details: for Final Form: residual solid; for Final Form / solubility at 1 h / solubility at 4 h / solubility at 24 h: 37° C.; for solubility at 1 h / solubility at 4 h / solubility at 24 h: thermodynamic from solid, Turbid
Experimental: Solids were suspended in FaSSIF, FeSSIF, SGF and H2O with target conc. of ˜10 mg/mL. The suspensions were agitated on a rolling incubator at 25 rpm (in the incubator set at 37° C.) for 1, 4 and 24 hrs. At each time point, 1 mL of the suspension was pipetted out for centrifugation at 15000 rpm (3 min) and filtration through 0.45 μm membrane to obtain supernatant for HPLC solubility and pH tests, the residual solids were analyzed by XRPD.

[6] = pH 7.0 (50 mM Phosphate), 24 hrs
[7] = pH 8.0 (50 mM Phosphate), 24 hrs
[8] = pH 8.0 (50 mM Phosphate), 96 hrs
[9] = 40° C./75% RH, 25° C./60% RH, 60° C., one and four weeks

water uptake (DVS) ([1]; 25 C.°/80% RH): 0.024%
form change after DVS test (XRPD) ([1]; after DVS test): no form change
API (RRT 1.00) % Area ([2]; pH 2.0 (50 mM HCl—KCl), 24 hrs): 84.93 % Area
Imp. 1 (RRT 0.66) % Area ([2]; pH 2.0 (50 mM HCl—KCl), 24 hrs): 0.15 % Area
Imp. 1 (RRT 0.70) % Area ([2]; pH 2.0 (50 mM HCl—KCl), 24 hrs): 0.67 % Area
Imp. 1 (RRT 0.76) % Area ([2]; pH 2.0 (50 mM HCl—KCl), 24 hrs): 14.25 % Area
Imp. 1 (RRT 1.05) % Area ([2]; pH 2.0 (50 mM HCl—KCl), 24 hrs): — (—: <0.05 area %)
Purity vs. Initial (%) ([2]; pH 2.0 (50 mM HCl—KCl), 24 hrs): 85.1%
degradation in solution ([2]; pH 2.0 and pH 4.0 buffers, 24 hrs): Degradation was observed
API (RRT 1.00) % Area ([2]; pH 4.0 (50 mM Citrate), 24 hrs): 98.42 % Area
Imp. 1 (RRT 0.66) % Area ([2]; pH 4.0 (50 mM Citrate), 24 hrs): 0.15 % Area
Imp. 1 (RRT 0.70) % Area ([2]; pH 4.0 (50 mM Citrate), 24 hrs): — (—: <0.05 area %)
Imp. 1 (RRT 0.76) % Area ([2]; pH 4.0 (50 mM Citrate), 24 hrs): 0.38 % Area
Imp. 1 (RRT 1.05) % Area ([2]; pH 4.0 (50 mM Citrate), 24 hrs): 0.06 % Area
Purity vs. Initial (%) ([2]; pH 4.0 (50 mM Citrate), 24 hrs): 98.5%
API (RRT 1.00) % Area ([2]; pH 6.0 (50 mM Citrate), 24 hrs): 99.75 % Area
Imp. 1 (RRT 0.66) % Area ([2]; pH 6.0 (50 mM Citrate), 24 hrs): 0.13 % Area
Imp. 1 (RRT 0.70) % Area ([2]; pH 6.0 (50 mM Citrate), 24 hrs): — (—: <0.05 area %)
Imp. 1 (RRT 0.76) % Area ([2]; pH 6.0 (50 mM Citrate), 24 hrs): 0.06 % Area
Imp. 1 (RRT 1.05) % Area ([2]; pH 6.0 (50 mM Citrate), 24 hrs): 0.06 % Area
Purity vs. Initial (%) ([2]; pH 6.0 (50 mM Citrate), 24 hrs): 99.8%
API (RRT 1.00) % Area [2, 6]: 99.78 % Area
Imp. 1 (RRT 0.66) % Area [2, 6]: 0.15 % Area
Imp. 1 (RRT 0.70) % Area [2, 6]: — (—: <0.05 area %)
Imp. 1 (RRT 0.76) % Area [2, 6]: — (—: <0.05 area %)
Imp. 1 (RRT 1.05) % Area [2, 6]: 0.07 % Area
Purity vs. Initial (%) [2, 6]: 99.9%
API (RRT 1.00) % Area [2, 7]: 99.81 % Area
Imp. 1 (RRT 0.66) % Area [2, 7]: 0.13 % Area
Imp. 1 (RRT 0.70) % Area [2, 7]: — (—: <0.05 area %)
Imp. 1 (RRT 0.76) % Area [2, 7]: — (—: <0.05 area %)
Imp. 1 (RRT 1.05) % Area [2, 7]: 0.06 % Area
Purity vs. Initial (%) [2, 7]: 100.0%
API (RRT 1.00) % Area [2, 8]: 99.83 % Area
Imp. 1 (RRT 0.66) % Area [2, 8]: 0.13 % Area
Imp. 1 (RRT 0.70) % Area [2, 8]: — (—: <0.05 area %)
Imp. 1 (RRT 0.76) % Area [2, 8]: — (—: <0.05 area %)
Imp. 1 (RRT 1.05) % Area [2, 8]: 0.04 % Area
Purity vs. Initial (%) [2, 8]: 100.0%
API (RRT 1.00) % Area ([3]; 1 week, 25° C./60% RH): 99.92 % Area
Description ([3]; 1 week, 25° C./60% RH): White powder
Final Form ([3]; 1 week, 25° C./60% RH): Form A
Imp.1 (RRT 0.68) % Area ([3]; 1 week, 25° C./60% RH): 0.08 % Area
Purity VS. initial (%) ([3]; 1 week, 25° C./60% RH): 100.0%
API (RRT 1.00) % Area ([3]; 1 week, 40° C./75% RH): 99.89 % Area
Description ([3]; 1 week, 40° C./75% RH): White powder
Final Form ([3]; 1 week, 40° C./75% RH): Form A
Imp.1 (RRT 0.68) % Area ([3]; 1 week, 40° C./75% RH): 0.11 % Area
Purity VS. initial (%) ([3]; 1 week, 40° C./75% RH): 100.0%
API (RRT 1.00) % Area ([3]; 1 week, 60° C.): 99.90 % Area
Description ([3]; 1 week, 60° C.): White powder
Final Form ([3]; 1 week, 60° C.): Form A
Imp.1 (RRT 0.68) % Area ([3]; 1 week, 60° C.): 0.10 % Area
Purity VS. initial (%) ([3]; 1 week, 60° C.): 100.0%
API (RRT 1.00) % Area ([3]; 4 weeks, 25° C./60% RH): 99.90 % Area
Description ([3]; 4 weeks, 25° C./60% RH): White powder
Final Form ([3]; 4 weeks, 25° C./60% RH): Form A
Imp.1 (RRT 0.68) % Area ([3]; 4 weeks, 25° C./60% RH): 0.10 % Area
Purity VS. initial (%) ([3]; 4 weeks, 25° C./60% RH): 100.0%
API (RRT 1.00) % Area ([3]; 4 weeks, 40° C./75% RH): 99.90 % Area
Description ([3]; 4 weeks, 40° C./75% RH): White powder
Final Form ([3]; 4 weeks, 40° C./75% RH): Form A
Imp.1 (RRT 0.68) % Area ([3]; 4 weeks, 40° C./75% RH): 0.10 % Area
Purity VS. initial (%) ([3]; 4 weeks, 40° C./75% RH): 100.0%
API (RRT 1.00) % Area ([3]; 4 weeks, 60° C.): 99.90 % Area
Description ([3]; 4 weeks, 60° C.): White powder
Final Form ([3]; 4 weeks, 60° C.): Form A
Imp.1 (RRT 0.68) % Area ([3]; 4 weeks, 60° C.): 0.10 % Area
Purity VS. initial (%) ([3]; 4 weeks, 60° C.): 100.0%
HPLC purity change on storage [3, 9]: no obvious HPLC purity change
form change on storage (XRPD) [3, 9]: no form change
API (RRT 1.00) % Area ([3]; Initial): 99.89 % Area
Imp.1 (RRT 0.68) % Area ([3]; Initial): 0.11 % Area
solubility at 24 h ([4]; 50 mM HCl-KCl buffer, pH 2.0 (50 mM HCl—KCl), final pH 2.3): 1800 µg/mL (≈ 6.1 mM)
solubility at 24 h ([4]; 50 mM citrate buffer, pH 4.0 (50 mM Citrate), final pH 4.1): 840 µg/mL (≈ 2.84 mM)
solubility at 24 h ([4]; 50 mM citrate buffer, pH 6.0 (50 mM Citrate), final pH 5.9): 750 µg/mL (≈ 2.54 mM)
solubility at 24 h ([4]; 50 mM phosphate buffer, pH 7.0 (50 mM Phosphate), final pH 6.9): 900 µg/mL (≈ 3.05 mM)
solubility at 24 h ([4]; 50 mM phosphate buffer, pH 8.0 (50 mM Phosphate), final pH 7.8): 810 µg/mL (≈ 2.74 mM)
form change after equilibrium solubility evaluation ([4]; pH buffers): no form change
Final Form ([4]; pH 2.0 (50 mM HCl—KCl)): Form A
Final Form ([4]; pH 4.0 (50 mM Citrate)): Form A
Final Form ([4]; pH 6.0 (50 mM Citrate)): Form A
Final Form ([4]; pH 7.0 (50 mM Phosphate)): Form A
Final Form ([4]; pH 8.0 (50 mM Phosphate)): Form A
form change after kinetic solubility test ([5]; bio-relevant media or H2O): No form change
Final Form ([5]; FaSSIF (pH 6.5), 1 hr): Form A
Final Form ([5]; FaSSIF (pH 6.5), 4 hr): Form A
Final Form ([5]; FaSSIF (pH 6.5), 24 hr): Form A
Final Form ([5]; FeSSIF (pH 5.0), 1 hr): Form A
Final Form ([5]; FeSSIF (pH 5.0), 4 hr): Form A
Final Form ([5]; FeSSIF (pH 5.0), 24 hr): Form A
Final Form ([5]; H2O (pH 6.5), 1 hr): Form A
Final Form ([5]; H2O (pH 6.5), 4 hr): Form A
Final Form ([5]; H2O (pH 6.5), 24 hr): Form A
Final Form ([5]; SGF (pH 1.8), 1 hr): Form A
Final Form ([5]; SGF (pH 1.8), 4 hr): Form A
Final Form ([5]; SGF (pH 1.8), 24 hr): Form A
solubility at 1 h ([5]; simulated gastric fluid, SGF (pH 1.8), 1 hr, final pH 1.8): 2300 µg/mL (≈ 7.79 mM)
solubility at 4 h ([5]; simulated gastric fluid, SGF (pH 1.8), 4 hr, final pH 2.3): 2400 µg/mL (≈ 8.13 mM)
solubility at 24 h ([5]; simulated gastric fluid, SGF (pH 1.8), 24 hr, final pH 2.2): 2500 µg/mL (≈ 8.47 mM)
solubility at 1 h ([5]; FaSSIF (pH 6.5), 1 hr, final pH 6.4): 1100 µg/mL (≈ 3.73 mM)
solubility at 4 h ([5]; FaSSIF (pH 6.5), 4 hr, final pH 6.6): 1100 µg/mL (≈ 3.73 mM)
solubility at 24 h ([5]; FaSSIF (pH 6.5), 24 hr, final pH 6.6): 1200 µg/mL (≈ 4.06 mM)
solubility at 1 h ([5]; FeSSIF (pH 5.0), 1 hr, final pH 5.6): 1100 µg/mL (≈ 3.73 mM)
solubility at 4 h ([5]; FeSSIF (pH 5.0), 4 hr, final pH 5.6): 1200 µg/mL (≈ 4.06 mM)
solubility at 24 h ([5]; FeSSIF (pH 5.0), 24 hr, final pH 5.6): 1200 µg/mL (≈ 4.06 mM)
solubility at 1 h ([5]; water, H2O (pH 6.5), 1 hr, final pH 8.5): 1100 µg/mL (≈ 3.73 mM)
solubility at 4 h ([5]; water, H2O (pH 6.5), 4 hr, final pH 8.4): 1100 µg/mL (≈ 3.73 mM)
solubility at 24 h ([5]; water, H2O (pH 6.5), 24 hr, final pH 8.7): 1100 µg/mL (≈ 3.73 mM)
Structure (SMILES): CC(C)(C(=O)N1CCOc2c(C#N)cncc2C1)C(F)F [Form A, 4-(3,3-difluoro-2,2-dimethyl-propanoyl)-3,5-dihydro-2H-pyrido[3,4-f][1,4]oxazepine-9-carbonitrile]
